We go through one compound from patent US20250346621A1, “ASCAROSIDE SALTS” (Ascribe Bioscience Inc., priority 2022, published 2025).

The experiment concerns Bipolaris sorokiniana. As to the kind of experiment: greenhouse-based plant pathogen assay: protection of wheat plants from Bipolaris sorokiniana damage. It is filed as in vivo. Particulars: two-week-old wheat plants sprayed with 1 μM, inoculated 24 h after treatment, symptoms quantified ten days after inoculation; compared with un-modified ascr #18; *P≤0.04. How it is done:
The efficacy of the zinc salt of ascr #18 was compared to free ascr #18 in a greenhouse-based plant pathogen assay. Two-week-old wheat plants were sprayed with a solution containing 1 μM ascr #18, or 1 μM of the zinc salt (ascr #18)2Zn. 24 h after treatment, the plants were inoculated with spores of Bipolaris sorokiniana (causal agent of root rot and brown spot blotch). Disease symptoms were quantified ten days after inoculation by measuring the symptomatic area on the leaves.

In the case of `CC(CCCCCCCCC(=O)[O-])OC1OC(C)C(O)CC1O.CC(CCCCCCCCC(=O)[O-])OC1OC(C)C(O)CC1O.[Zn+2]` (stereo not shown) [(ascr #18)2Zn], the “protection against pathogen damage (symptomatic area on the leaves)” value is recorded as “better protection against pathogen damage than un-modified ascr #18”.
